Data from publication PMC7995547, “ω‐Imidazolyl‐alkyl derivatives as new preclinical drug candidates for treating non‐alcoholic steatohepatitis” (Physiological Reports, 2021).

Experiments:
[1] = system: HFD‐induced NASH rat model (liver and serum); test: End products of fat metabolism (liver and serum lipids), NASH rat model; format: in vivo, Wistar rats; details: for Decrease in liver triglyceride levels compared to disease group / Reduction of the effect of HFD on liver triglyceride levels: average over doses (I‐ol, I‐an); for Decrease in liver triglyceride levels compared to disease group / Reduction of the effect of HFD on liver triglyceride levels / Decrease in liver phospholipid levels compared to disease group / Decrease in serum LDL cholesterol / Decrease in serum triglyceride levels compared to disease group: UDCA 40 mg/kg b.w.
Protocol: (§1) Studies were done using Wistar rats of female sex by the Institute of Pharmacology and Biochemistry at Minsk. The animals were 80–90 days old and weighed 180–200 g. They had free access to a liquid Lieber‐DeCarli (LDC) diet (Lieber et al., 2004) and were housed under standard conditions meaning a 12‐h light/dark cycle at 22 ± 2°C and 55 ± 5% humidity.
(§2) Group 1 was designated as the first control group; it was fed a normal standard solid diet. Group 2, as the second control group, was fed a standard amount of fat as a part of the liquid “physiological,” non‐high fat LDC diet. All other groups received the liquid ‘disease‐causing’ LDC diet (Table 2), including a high content of unsaturated fatty acids.
(§3) Both LDC diets were in a liquid form as produced by ssniff‐Spezialdiäten GmbH, Soest (Germany). The feed was provided over the entire experimental period of 16 weeks; however, the corresponding experimental substances were only administered in the last four weeks (Figure 3).
(§4) The experimental substances I‐ol, I‐an, and UDCA were dissolved in a 0.8% aqueous HPMC gel to obtain the following concentrations: (1) I‐ol at 0.4, 4, and 40 mg/kg body weight (b.w.), (2) I‐an at 0.4, 4, and 40 mg/kg b.w., and (3) UDCA at 40 mg/kg b.w. The Group‐2 and −3 rats received only HPMC as placebo. Each test encompassed 6–8 rats that were put up in a separate cage. The rats were fed ad libitum, and their intake per cage was controlled daily. In order to ensure an exact daily reproducible dosage, the experimental substances or only HPMC was administered intragastrically via oral gavage. Basically, the drug therapy of a chronic disease is the more efficient the higher the adherence of the affected patients. This is generally higher with peroral administration than with any other form of application. At the end of the experiment, the animals were sacrificed under fasting conditions, by aorta dissection and exsanguination, after anesthetizing with an intraperitoneal injection of 5% pentobarbital solution.
The activities of the liver enzymes aspartate aminotransferase (AST), alanine aminotransferase (ALT), alkaline phosphatase (AP), and γ‐glutamyl transferase (γ‐GT) as well as bilirubin and triglyceride levels in the serum were determined as described by the instructions of BIO‐LA‐tests kit (Erba Lachema, Brno, Czech Republic).
Extraction of lipids was performed using a solvent composed of chloroform and methanol (2:1 v/v). Thin‐layer chromatography (TLC) was used to separate off neutral lipids and phospholipids. Silicagel G 60 plates (0.25 mm thick) were used. The lipids were separated by ascending chromatography in a system composed of hexane:diethylic ether:glacial acetic acid (73:25:2; v/v/v). They were visualized by iodine vapor and the spots corresponding to triglycerides and cholesterol were scraped off and eluted with methanol for spectrophotometric evaluation. Triglyceride and cholesterol levels were determined using the BIO‐LA‐test kit (Erba Lachema, Brno, Czech Republic). Phospholipid concentration was determined by measuring the levels of phosphomolybdate using an inorganic phosphate reagent containing molybdate (Findlay & Evans, 1987). VLDL level was determined by using the manganese precipitation method (Burstein & Scholnick, 1973) after partial modification (Hirano et al., 2003).

[2] = system: HFD‐induced NASH rat model (liver); test: Oxidative stress (ROS status) in the liver, HFD-induced NASH rat model; format: in vivo, Wistar rats; details: for Dose dependence of the effect on SRA level: Pearson correlation / linear regression; for Increase in GR activity compared to disease group: I‐ol, I‐an groups overall; for Increase in GR activity compared to disease group / Decrease in SRA level compared to disease group / Decrease in TBARS level compared to disease group / Reduction of the effect of HFD on the SRA level / Reduction of the effect of HFD on the TBARS level: UDCA 40 mg/kg b.w.; for Decrease in SRA level compared to disease group: average over 0.4, 4, 40 mg/kg b.w. (I‐ol, I‐an), oral gavage daily, last 4 of 16 weeks HFD; for Decrease in TBARS level compared to disease group / Reduction of the effect of HFD on the SRA level / Reduction of the effect of HFD on the TBARS level: average over doses (I‐ol, I‐an)
Protocol: as §1
The rats were divided into 10 groups based on the diets and experimental substances administered (Figure 2).
as §2, §3, §4
The formation of ROS in the rat liver was measured using NADPH‐induced chemiluminescence as described by Müller‐Peddinghaus et al. (Muller‐Peddinghaus, 1987). Luminol and lucigenin were used for detecting the superoxide radical anion (SRA) and hydrogen peroxide. Liver pieces were homogenized in 0.1 M sodium phosphate buffer, pH 7.4; the homogenates were centrifuged at 9,000 × g at 0°C; and aliquots were used for subsequent measurements. Reduced glutathione (GSH) was estimated via a modified Ellman's method (Ellman, 1959), in which 0.2 mL of the liver homogenate supernatant was added to 1.6 mL of an EDTA/sodium phosphoric acid solution and the absorbance noted at 412 nm against blank values. GSH solution produced immediately before application served as the standard. The end products of the lipid peroxidation reaction were equivalent to the thiobarbituric acid‐reacting substances (TBARS), and their concentration was measured according to the method described by Buege et al. (Buege & Aust, 1978). Enzymatic activities of microsomal glutathione reductase (GR) and cytosolic glutathione peroxidase (GPx) were measured according to the methodology of Buko et al. (Buko et al., 2002). Catalase activity was determined according to the spectroscopic methodology described by Beers et al. (Beers & Sizer, 1952) using hydrogen peroxide as the substrate.

CYP2E1 = system: CYP2E1; parameters: method as in Diesinger et al., 2020; details: ref Diesinger et al., 2020, cited from earlier work; for Inhibition of CYP2E1 (in words): in vitro experiments
[3] = system: HFD‐induced NASH rat model (liver); test: Area of connective tissue in the liver (Mallory‐Azan staining), NASH rat model; format: in vivo, Wistar rats
Protocol: as §1, §2, §3, §4
Liver tissue sections were subject to the Mallory‐Azan (Heidenhain Azan) staining method for visualizing the connective tissues. This method was a modification of the original Mallory staining protocol, wherein azocarmin with a mixture of aniline blue and orange G was used. In this method, the collagen tissue and basophilic granules turn blue, the muscle tissue and acidophilic granules turn orange to red, and the cell nuclei and cytoplasm turn red. Elastic fibers remain unstained; however, they might turn yellow or pink. The proportion of positively stained liver tissue to the total area of the histological slide was determined quantitatively.

[4] = liver, highest concentration (40 mg/kg b.w.)
[5] = lowest concentration (0.4 mg/kg b.w.)

Row | Structure (SMILES) | Decrease in liver triglyceride levels compared to disease group [1] | Reduction of the effect of HFD on liver triglyceride levels [1] | Decrease in liver phospholipid levels compared to disease group ([1]; average over doses) | Decrease in serum LDL cholesterol ([1]; average over doses) | Decrease in serum triglyceride levels compared to disease group ([1]; average over doses) | Dose dependence of the effect on SRA level ([2]; 0.4, 4, 40 mg/kg b.w.) | Increase in GR activity compared to disease group ([2]; liver) | Decrease in SRA level compared to disease group ([2]; liver) | Decrease in TBARS level compared to disease group ([2]; liver) | Reduction of the effect of HFD on the SRA level ([2]; liver) | Reduction of the effect of HFD on the TBARS level ([2]; liver) | Decrease in hydrogen peroxide level compared to disease group [2, 4] | Hydrogen peroxide level below the reference values of group 1 [2, 4] | Inhibition of CYP2E1 (in words) (CYP2E1) | other results
1 | CCCCCCCCCCCCn1ccnc1 [I‐an, 1‐imidazolyldodecane] | 15% | 33% | 13% | non‐significant trend toward lowering the serum LDL level | 12% | weak, significant (p < 0.05), linear, dose‐dependent effect | no effect | 23% | 35% | 65% | 82% | 43% | 4% | strong inhibitors of CYP2E1 | Dose dependence of the effect on liver phospholipid levels ([1]; 0.4, 4, 40 mg/kg b.w.): strong and very highly significant (p < 0.001), linear, dose‐dependent effect; Reduction of the effect of HFD on liver phospholipid levels ([1]; average over doses): 53%; Serum triglyceride level below the reference value of group 1 ([1]; average over doses): 4%; Liver phospholipid level above the reference value of group 1 ([1]; highest concentration (40 mg/kg b.w.)): 3%; Liver cholesterol level below the reference value of group 1 ([1]; low dose (0.4 mg/kg b.w.)): 8%; Reduction of liver cholesterol level compared to disease group ([1]; low dose (0.4 mg/kg b.w.)): 18%; Dose dependence of the effect on GSH level ([2]; 0.4, 4, 40 mg/kg b.w.): weak, significant (p < 0.05), linear, dose‐dependent effect; Increase in GSH level compared to disease group [2, 4]: 63%; Reduction of SRA level [2, 4]: 75%; Reduction of the effect of HFD on GSH level [2, 4]: 87%; Effect on area of connective tissue in the liver (in words) ([3]; compound overall): no therapeutic effect
2 | OCCCCCCCCCCCCn1ccnc1 [I‐ol, 12‐imidazolyl‐1‐dodecanol] | 18% | 41% | no therapeutic effect | 28% | no therapeutic effect | strong, very highly significant (p < 0.001), linear, dose‐dependent effect | 28% | 21% | 38% | 60% | 87% | 50% | 16% | strong inhibitors of CYP2E1 | Serum LDL cholesterol below the reference value of group 1 ([1]; average over doses): 11%; Reduction of serum VLDL level ([1]; medium concentration (4 mg/kg b.w.)): 19%; Liver cholesterol level below the reference value of group 1 ([1]; medium dose (4 mg/kg b.w.)): 7%; Reduction of liver cholesterol level compared to disease group ([1]; medium dose (4 mg/kg b.w.)): 17%; Dose dependence of the effect on hydrogen peroxide level ([2]; 0.4, 4, 40 mg/kg b.w.): strong, very highly significant (p < 0.001), linear, dose‐dependent effect; Effect on GSH level (in words) ([2]; liver, compound overall): non‐significant trend toward an increasing GSH level; SRA level below the reference value of control group 1 [2, 4]: 24%; Effect of HFD nullified, GR activity increased by (on an average) ([2]; liver, relative to the effect of HFD): 113%; Binding strength to CYP2E1 (rank) (CYP2E1): highest affinity; Decrease in area of connective tissue in the liver compared to disease group [3, 5]: 28%; Reduction of the effect of HFD on area of connective tissue in the liver [3, 5]: 72%
